Test results from paper PMC10218941, “Design, Synthesis, Antiproliferative Actions, and DFT Studies of New Bis–Pyrazoline Derivatives as Dual EGFR/BRAF^V600E Inhibitors” (International Journal of Molecular Sciences, 2023).
Where “and” joins values, the source holds several entries; their conditions need not be identical. Identical values can stand only once.

Legend:
caspase-3 = assay: Caspase 3 activation assay; type: cell-based, human; settings: MCF-7 cells; for Caspase–3 Fold Change: versus untreated control
From the text: Compounds 12 and 17 were studied for their effects on caspase-3 levels in MCF-7 (breast cancer cell line) and staurosporine as a reference (503.00 ± 4 pg/mL). […] The aforementioned results imply that caspase-3 overexpression may be a contributing factor in the antiproliferative effects of the investigated compounds. […]
4.2.3. Caspase-3 activation assay
Allow all reagents to reach room temperature before use. Gently mix all liquid reagents prior to use. Determine the number of 8-well strips needed for the assay. Insert these in the frame(s) for current use. Add 100 μl of the Standard Diluent Buffer to the zero standard wells. Well(s) reserved for chromogen blank should be left empty. Add 100 μl of standards and controls or diluted samples to the appropriate microtiter wells. The sample dilution chosen should be optimized for each experimental system. Tap gently on side of plate to mix. Cover wells with plate cover and incubate for 2 hours at room temperature. Thoroughly aspirate or decant solution from wells and discard the liquid, Wash wells 4 times. Pipette 100 μl of Caspase-3 (Active) Detection Antibody solution into each well except the chromogen blank(s). Tap gently on the side of the plate to mix. Cover plate with plate cover and incubate for 1 hour at room temperature. Thoroughly aspirate or decant solution from wells and discard the liquid, Wash wells 4 times. Add 100 μl Anti-Rabbit IgG HRP Working Solution to each well except the chromogen blank(s). Prepare the working dilution as described in Preparing IgG HRP. Cover wells with the plate cover and incubate for 30 minutes at room temperature. Thoroughly aspirate or decant solution from wells and discard the liquid. Wash wells 4 times. Add 100 μl of Stabilized Chromogen to each well. The liquid in the wells will begin to turn blue. Incubate for 30 minutes at room temperature and in the dark. The incubation time for chromogen substrate is often determined by the microtiter plate reader used. Many plate readers have the capacity to record a maximum optical density (O.D.) of 2.0. The O.D. values should be monitored, and the substrate reaction stopped before the O.D. of the positive wells exceeds the limits of the instrument. The O.D. values at 450 nm can only be read after the Stop Solution has been added to each well. If using a reader that records only to 2.0 O.D., stopping the assay after […]
Add 100 μl of Stop Solution to each well. Tap side of plate gently to mix. The solution in the wells should change from blue to yellow. Read the absorbance of each well at 450 nm having blanked the plate reader against a chromogen blank composed of 100 μl each of Stabilized Chromogen and Stop Solution. Read the plate within 2 hours after adding the Stop Solution. Use a curve fitting software to generate the standard curve. A four-parameter algorithm provides the best standard curve fit. Read the concentrations for unknown samples and controls from the standard curve. Multiply value(s) obtained for sample(s) by the appropriate dilution factor to correct for the dilution in step 3. Samples producing signals greater than that of the highest standard should be diluted in Standard Diluent Buffer and reanalyzed. […]

[1] = system: HT-29 (colon cancer cell line); assay: Antiproliferative assay (MTT), HT-29; type: cell-based; settings: Homo sapiens, read-out: Antiproliferative Activity IC50 ± SEM (µM) HT-29
Protocol: The antiproliferative activity of pyrazoline hybrids 8–17 was tested against the four human cancer cell lines Panc-1 (pancreatic cancer cell line), MCF-7 (breast cancer cell line), HT-29 (colon cancer cell line), and A-549 (lung cancer cell line) using the MTT assay and doxorubicin as the reference drug. See Appendix SA (Supplementary File). […]
4.2.1.2. Assay for antiproliferative effect
To explore the antiproliferative potential of compounds propidium iodide fluorescence assay was performed using different cell lines such as Panc -1 (pancreas cancer cell line), MCF-7 (breast cancer cell line), HT-29 (colon cancer cell line) and A-549 (epithelial cancer cell line), respectively. To calculate the total nuclear DNA, a fluorescent dye (propidium iodide, PI) is used which can attach to the DNA, thus offering a quick and precise technique. PI cannot pass through the cell membrane and its signal intensity can be considered as directly proportional to quantity of cellular DNA. Cells whose cell membranes are damaged or have changed permeability are counted as dead ones. The assay was performed by seeding the cells of different cell lines at a density of 3000-7500 cells/well (in200μl medium) in culture plates followed by incubation for 24h at 37 °C in humidified 5%CO2/95% air atmospheric conditions. The medium was removed; the compounds were added to the plates at 10 μM concentrations (in 0.1% DMSO) in triplicates, followed by incubation for 48h. DMSO (0.1%) was used as control. After incubation, medium was removed followed by the addition of PI (25 μl, 50μg/mL in water/medium) to each well of the plates. At - 80 °C, the plates were allowed to freeze for 24 h, followed by thawing at 25 °C. A fluorometer (Polar-Star BMG Tech) was used to record the readings at excitation and emission wavelengths of 530 and 620 nm for each well. The percentage cytotoxicity of compounds was calculated using […]
Where ATC= Absorbance of treated cells and AC= Absorbance of control. Erlotinib was used as positive control in the assay. […]

EGFR = target: T1, EGFR (Homo sapiens, UniProt P00533); assay: EGFR inhibitory assay; type: biochemical; settings: read-out: EGFR Inhibition IC50 ± SEM
T1 construct: 645–1186); His6 (N); made in house; host or cells: Sf-9 insect cells (baculovirus; pBlueBacHis2B / pFASTBacHTc
Protocol: 4.2.2. EGFR inhibitory assay
Baculoviral expression vectors including pBlueBacHis2B and pFASTBacHTc were used […]
(1 picture or pasted object on this page, not shown here)
5ʹ upstream to the EGFR sequence comprised a sequence that encoded (His)6. Sf-9 cells were infected for 72h for protein expression. The pellets of Sf-9 cells were solubilized in a buffer containing sodium vanadate (100 μM), aprotinin (10 μg/mL), triton (1%), HEPES […]
centrifugation for 20 min.
Histidine-linked proteins were first eluted with 250 and then […]
enhancement solution was added to each well and the signal was recorded at excitation and […]
The autophosphorylation percentage inhibition by compounds was calculated using the following equation: […]

T1 sequence (P00533 669-1210): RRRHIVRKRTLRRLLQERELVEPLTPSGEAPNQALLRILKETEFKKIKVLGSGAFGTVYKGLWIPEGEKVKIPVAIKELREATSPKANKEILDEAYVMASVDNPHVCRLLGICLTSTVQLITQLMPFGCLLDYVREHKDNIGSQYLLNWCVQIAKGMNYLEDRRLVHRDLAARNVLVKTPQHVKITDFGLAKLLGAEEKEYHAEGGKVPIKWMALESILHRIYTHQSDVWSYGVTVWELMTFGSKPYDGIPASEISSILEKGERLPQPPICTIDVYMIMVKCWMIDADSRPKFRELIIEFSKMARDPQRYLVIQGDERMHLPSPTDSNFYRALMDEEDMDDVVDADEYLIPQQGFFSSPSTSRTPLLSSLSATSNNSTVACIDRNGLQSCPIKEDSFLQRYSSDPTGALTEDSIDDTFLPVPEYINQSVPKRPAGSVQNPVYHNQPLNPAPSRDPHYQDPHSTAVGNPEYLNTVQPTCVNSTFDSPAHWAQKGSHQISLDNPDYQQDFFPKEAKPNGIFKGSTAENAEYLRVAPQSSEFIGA

SMILES	Caspase–3 Conc (caspase-3)	Caspase–3 Fold Change (caspase-3)	IC50 [1]	IC50 (EGFR)
CN[C@@H]1C[C@H]2O[C@@](C)([C@@H]1OC)n1c3ccccc3c3c4c(c5c6ccccc6n2c5c31)C(=O)NC4 [Staurosporine, reference compound]	503.00 ± 4 pg/mL	8.0	–	–
COc1ccc(C2CC(c3ccc(OCC(=O)Nc4ccc(C5=NNC(c6ccc(OC)c(OC)c6)C5)cc4)cc3)=NN2)cc1 (stereo not shown) [Compound 12, 2-(4-(5-(4-Methoxyphenyl)-4,5-dihydro-1H-pyrazol-3-yl)phenoxy)-N-(4-(5-(3,4-dimethoxyphenyl)-4,5-dihydro-1H-pyrazol-3-yl)phenyl)acetamide]	543.50 ± 4 pg/mL	8.5	1.2 ± 0.1 µM	81 ± 5 nM
COc1ccc(C2CC(c3ccc(NC(=O)COc4ccc(C5=NNC(c6ccc(OC)c(OC)c6)C5)cc4)cc3)=NN2)cc1 (stereo not shown) [Compound 17, 2-(4-(5-(3,4-Dimethoxyphenyl)-4,5-dihydro-1H-pyrazol-3-yl)phenoxy)-N-(4-(5-(4-methoxyphenyl)-4,5-dihydro-1H-pyrazol-3-yl)phenyl)acetamide]	469.50 ± 5 pg/mL and 469.50 ± 4 pg/mL	7.2	1.3 ± 0.1 µM	87 ± 6 nM
